Measured values published in article PMC9487510, “A Novel Oral GyrB/ParE Dual Binding Inhibitor Effective against Multidrug-Resistant Neisseria gonorrhoeae and Other High-Threat Pathogens” (Antimicrobial Agents and Chemotherapy, 2022).
Values after ≈ are worked out from the molar mass of the structure shown. Read-outs that look alike come from different tables or passages of the source.

Test system: N. gonorrhoeae clinical isolates
Assay: MIC, agar dilution (CLSI)
Format: cell-based, Neisseria gonorrhoeae
Details: Neisseria gonorrhoeae

Compound CC[C@H]1OC(=O)[C@H](C)[C@@H](O[C@H]2C[C@@](C)(OC)[C@@H](O)[C@H](C)O2)[C@H](C)[C@@H](O[C@@H]2O[C@H](C)C[C@H](N(C)C)[C@H]2O)[C@](C)(O)C[C@@H](C)CN(C)[C@H](C)[C@@H](O)[C@]1(C)O [Azi, azithromycin] has an MIC50 of 0.125 µg/mL (≈ 0.167 µM), an MIC (strain CDC1 (GCREF2012 016), read-out: MIC) of 0.25 µg/mL (≈ 0.334 µM) and an MIC (strain CDC2 (GCREF2012 045), read-out: MIC) of 0.5 µg/mL (≈ 0.668 µM). It also gave an MIC (strain CDC3 (GCREF2013 013)) of 0.125 µg/mL (≈ 0.167 µM), an MIC (strain CDC4 (GCREF2013 030)) of 0.125 µg/mL (≈ 0.167 µM) and an MIC (strain CDC5 (GCREF2012 001), read-out: MIC) of 0.5 µg/mL (≈ 0.668 µM). For the same compound, the MIC (strain CDC6 (GCREF2012 002), read-out: MIC) was 0.5 µg/mL (≈ 0.668 µM), the MIC (strain CDC8 (GCREF2012 004)) was 0.125 µg/mL (≈ 0.167 µM) and the MIC (strain CDC9 (GCREF2012 005)) was 0.125 µg/mL (≈ 0.167 µM). It also gave an MIC (strain CDC10 (GCREF2012 006), read-out: MIC) of 0.5 µg/mL (≈ 0.668 µM), an MIC (strain CDC11 (GCREF2012 007), read-out: MIC) of 0.25 µg/mL (≈ 0.334 µM) and an MIC (strain CDC12 (GCREF2012 008)) of 0.125 µg/mL (≈ 0.167 µM). It also gave an MIC (strain CDC13 (GCREF2012 009)) of 0.125 µg/mL (≈ 0.167 µM), an MIC (strain CDC14 (GCREF2012 010)) of 0.125 µg/mL (≈ 0.167 µM) and an MIC (strain CDC15 (GCREF2012 011), read-out: MIC) of 4 µg/mL (≈ 5.34 µM). It also gave an MIC (strain CDC16 (GCREF2012 012), read-out: MIC) of 0.25 µg/mL (≈ 0.334 µM), an MIC (strain CDC18 (GCREF2012 014), read-out: MIC) of 0.5 µg/mL (≈ 0.668 µM) and an MIC (strain CDC19 (GCREF2012 015), read-out: MIC) of 8 µg/mL (≈ 10.7 µM). The MIC (strain CDC20 (GCREF2012 017), read-out: MIC) was greater than 16 µg/mL, the MIC (strain CDC21 (GCREF2012 018)) was 0.125 µg/mL (≈ 0.167 µM) and the MIC (strain CDC22 (GCREF2012 019), read-out: MIC) was 0.5 µg/mL (≈ 0.668 µM). For the same compound, the MIC (strain CDC23 (GCREF2012 020)) was 0.125 µg/mL (≈ 0.167 µM), the MIC (strain CDC24 (GCREF2012 021), read-out: MIC) was 0.25 µg/mL (≈ 0.334 µM) and the MIC (strain CDC25 (GCREF2012 022)) was 0.125 µg/mL (≈ 0.167 µM). For the same compound, the MIC (strain CDC26 (GCREF2012 023), read-out: MIC) was 0.5 µg/mL (≈ 0.668 µM), the MIC (strain CDC27 (GCREF2012 024), read-out: MIC) was 0.25 µg/mL (≈ 0.334 µM) and the MIC (strain CDC28 (GCREF2012 025), read-out: MIC) was 0.25 µg/mL (≈ 0.334 µM). For the same compound, the MIC (strain CDC29 (GCREF2012 026), read-out: MIC) was 0.5 µg/mL (≈ 0.668 µM), the MIC (strain CDC30 (GCREF2012 027), read-out: MIC) was 0.25 µg/mL (≈ 0.334 µM) and the MIC (strain CDC31 (GCREF2012 028), read-out: MIC) was 0.5 µg/mL (≈ 0.668 µM). It also gave an MIC (strain CDC32 (GCREF2012 029)) of 0.125 µg/mL (≈ 0.167 µM), an MIC (strain CDC33 (GCREF2012 030)) of 0.125 µg/mL (≈ 0.167 µM) and an MIC (strain CDC34 (GCREF2012 031)) of 0.125 µg/mL (≈ 0.167 µM). For the same compound, the MIC (strain CDC35 (GCREF2012 032), read-out: MIC) was 0.25 µg/mL (≈ 0.334 µM), the MIC (strain CDC36 (GCREF2012 033), read-out: MIC) was 4 µg/mL (≈ 5.34 µM) and the MIC (strain CDC37 (GCREF2012 034), read-out: MIC) was 0.25 µg/mL (≈ 0.334 µM). It also gave an MIC (strain CDC38 (GCREF2012 035), read-out: MIC) of 0.25 µg/mL (≈ 0.334 µM), an MIC (strain CDC39 (GCREF2012 036), read-out: MIC) of 0.25 µg/mL (≈ 0.334 µM) and an MIC (strain CDC40 (GCREF2012 037), read-out: MIC) of 0.25 µg/mL (≈ 0.334 µM). For the same compound, the MIC (strain CDC41 (GCREF2012 038), read-out: MIC) was 0.25 µg/mL (≈ 0.334 µM), the MIC (strain CDC42 (GCREF2012 039), read-out: MIC) was 0.25 µg/mL (≈ 0.334 µM) and the MIC (strain CDC43 (GCREF2012 040), read-out: MIC) was 0.25 µg/mL (≈ 0.334 µM). The MIC (strain CDC45 (GCREF2012 042), read-out: MIC) was 0.5 µg/mL (≈ 0.668 µM), the MIC (strain CDC46 (GCREF2012 043)) was 0.125 µg/mL (≈ 0.167 µM) and the MIC (strain CDC47 (GCREF2012 044), read-out: MIC) was 0.5 µg/mL (≈ 0.668 µM). The MIC (strain CDC48 (GCREF2012 046), read-out: MIC) was 0.25 µg/mL (≈ 0.334 µM), the MIC (strain CDC49 (GCREF2012 047), read-out: MIC) was 0.5 µg/mL (≈ 0.668 µM) and the MIC (strain CDC50 (GCREF2012 048), read-out: MIC) was 0.25 µg/mL (≈ 0.334 µM). It also gave an MIC (strain CDC51 (GCREF2012 049)) of 0.125 µg/mL (≈ 0.167 µM), an MIC (strain CDC52 (GCREF2012 050)) of 0.125 µg/mL (≈ 0.167 µM) and an MIC (strain CDC53 (GCREF2012 051)) of 0.125 µg/mL (≈ 0.167 µM). It also gave an MIC (strain CDC54 (GCREF2012 052), read-out: MIC) of 0.016 µg/mL (≈ 0.0214 µM), an MIC (strain CDC55 (GCREF2013 001)) of 0.125 µg/mL (≈ 0.167 µM) and an MIC (strain CDC56 (GCREF2013 002)) of 0.125 µg/mL (≈ 0.167 µM). For the same compound, the MIC (strain CDC57 (GCREF2013 003)) was 0.125 µg/mL (≈ 0.167 µM), the MIC (strain CDC58 (GCREF2013 004)) was 0.125 µg/mL (≈ 0.167 µM) and the MIC (strain CDC59 (GCREF2013 044)) was 0.125 µg/mL (≈ 0.167 µM). For the same compound, the MIC (strain CDC60 (GCREF2013 005)) was 0.125 µg/mL (≈ 0.167 µM), the MIC (strain CDC61 (GCREF2013 006), read-out: MIC) was 0.25 µg/mL (≈ 0.334 µM) and the MIC (strain CDC62 (GCREF2013 007)) was 0.125 µg/mL (≈ 0.167 µM). For the same compound, the MIC (strain CDC63 (GCREF2013 008), read-out: MIC) was 0.016 µg/mL (≈ 0.0214 µM), the MIC (strain CDC64 (GCREF2013 009)) was 0.125 µg/mL (≈ 0.167 µM) and the MIC (strain CDC65 (GCREF2013 010)) was 0.125 µg/mL (≈ 0.167 µM). It also gave an MIC (strain CDC66 (GCREF2013 011), read-out: MIC) of 4 µg/mL (≈ 5.34 µM), an MIC (strain CDC67 (GCREF2013 014)) of 0.125 µg/mL (≈ 0.167 µM) and an MIC (strain CDC68 (GCREF2013 016)) of 0.125 µg/mL (≈ 0.167 µM). The MIC (strain CDC69 (GCREF2013 017)) was 0.125 µg/mL (≈ 0.167 µM), the MIC (strain CDC70 (GCREF2013 018), read-out: MIC) was 4 µg/mL (≈ 5.34 µM) and the MIC (strain CDC71 (GCREF2013 019)) was 0.125 µg/mL (≈ 0.167 µM). It also gave an MIC (strain CDC72 (GCREF2013 020)) of 0.125 µg/mL (≈ 0.167 µM), an MIC (strain CDC73 (GCREF2013 021)) of 0.125 µg/mL (≈ 0.167 µM) and an MIC (strain CDC74 (GCREF2013 022)) of 0.125 µg/mL (≈ 0.167 µM). For the same compound, the MIC (strain CDC75 (GCREF2013 023), read-out: MIC) was 0.5 µg/mL (≈ 0.668 µM), the MIC (strain CDC76 (GCREF2013 024)) was 0.125 µg/mL (≈ 0.167 µM) and the MIC (strain CDC77 (GCREF2013 025), read-out: MIC) was 4 µg/mL (≈ 5.34 µM). For the same compound, the MIC (strain CDC78 (GCREF2013 026), read-out: MIC) was 0.031 µg/mL (≈ 0.0414 µM), the MIC (strain CDC79 (GCREF2013 027)) was 0.125 µg/mL (≈ 0.167 µM) and the MIC (strain CDC80 (GCREF2013 028), read-out: MIC) was 8 µg/mL (≈ 10.7 µM). The MIC (strain CDC81 (GCREF2013 029)) was 0.125 µg/mL (≈ 0.167 µM), the MIC (strain CDC82 (GCREF2013 031), read-out: MIC) was 2 µg/mL (≈ 2.67 µM) and the MIC (strain CDC83 (GCREF2013 032)) was 0.125 µg/mL (≈ 0.167 µM). It also gave an MIC (strain CDC84 (GCREF2013 033)) of 0.125 µg/mL (≈ 0.167 µM), an MIC (strain CDC86 (GCREF2013 035)) of 0.125 µg/mL (≈ 0.167 µM) and an MIC (strain CDC87 (GCREF2013 036)) of 0.125 µg/mL (≈ 0.167 µM). It also gave an MIC (strain CDC88 (GCREF2013 037), read-out: MIC) of 2 µg/mL (≈ 2.67 µM), an MIC (strain CDC89 (GCREF2013 038), read-out: MIC) of 2 µg/mL (≈ 2.67 µM) and an MIC (strain CDC90 (GCREF2013 039)) of 0.125 µg/mL (≈ 0.167 µM). For the same compound, the MIC (strain CDC91 (GCREF2013 040)) was 0.125 µg/mL (≈ 0.167 µM), the MIC (strain CDC92 (GCREF2013 041)) was 0.125 µg/mL (≈ 0.167 µM) and the MIC (strain CDC93 (GCREF2013 042)) was 0.125 µg/mL (≈ 0.167 µM). The MIC (strain CDC94 (GCREF2013 043), read-out: MIC) was 2 µg/mL (≈ 2.67 µM), the MIC (strain CDC95 (GCREF2013 045)) was 0.125 µg/mL (≈ 0.167 µM) and the MIC (strain CDC96 (GCREF2013 046)) was 0.125 µg/mL (≈ 0.167 µM). The MIC (strain CDC97 (GCREF2013 047)) was 0.125 µg/mL (≈ 0.167 µM), the MIC (strain CDC98 (GCREF2013 048), read-out: MIC) was 2 µg/mL (≈ 2.67 µM) and the MIC (strain CDC99 (GCREF2013 012), read-out: MIC) was 4 µg/mL (≈ 5.34 µM). The MIC (strain CDC100 (GCREF2013 015)) was 0.125 µg/mL (≈ 0.167 µM) and the MIC90 (96 clinical isolates, read-out: MIC90) was 2 µg/mL (≈ 2.67 µM).
